Experimental data reported in US20230257771A1, “AAV DELIVERY SYSTEM FOR LUNG CANCER TREATMENT” (Christiana Care Health Services, Inc., priority 2020, published 2023).
Entries after “also recorded” stand apart in the source; their conditions may differ.

Legend:
[1] = tested on: 2-11 A549 cells (NRF2 knockout); test: MTS cell proliferation assay after drug exposure, NRF2 knockout A549 (2-11); type: cell-based, human; settings: 72 hours; for chemosensitivity (MTS): increasing dosages of single drug
Description: (§1) Cell viability was evaluated using the CellTiter 96 Aqueous Non-Radioactive Cell Proliferation Assay (Promega, Madison, WI). A549 cell lines were plated at 2×10^3 cells per well and allowed to culture for 24 hours. The cell media was then aspirated, the cells washed with PBS, then exposed to the MTS reagent for 3 hours. After 3 hours of MTS bio-reduction by proliferating cells, the formazan product’s absorbance was measured using a 450 nm filter on an Infinite 2000 PRO microplate reader (Tecan, Mannadorf, Switzerland). Cell viability after drug exposure was evaluated using the CellTiter 96 Aqueous Non-Radioactive Cell Proliferation Assay. A549 cell lines were plated at 2×10^3 cells per well and allowed to culture for 24 hours. The cells were then treated with cisplatin, carboplatin, or a combination of cisplatin and vinorelbine for three days. The cell media was then aspirated, the cells washed with PBS, then exposed to the MTS reagent for 3 hours. After 3 hours of MTS bio-reduction by proliferating cells, the formazan product’s absorbance was measured using a 450 nm filter on an Infinite 2000 PRO microplate reader.

[2] = tested on: NRF2 knockout A549 (2-11) tumors; test: Xenograft mouse model, NRF2 knockout A549 (2-11) tumors; type: in vivo
Description: (§2) The animal trials presented herein were carried out at Washington Biotech Inc., Simpsonville Maryland, under animal use and care protocol (SOP 505, SOP 520, SOP 522, SOP 1610, SOP1650) approved by the animal care and use committee of Washington Biotechnology Inc. (AAALAC accredited Animal Welfare Assurance number A4192-01). The human xenograft model was established using methodology reported previously. Kellar et al., Biomed Res. Int. 2015, 1-17 (2015). Female athymic nude mice (Envigo, 5-6 weeks old) were used in this study. Approximately 5 × 10^6 cells (wild type A549 or homozygous knockout (clonal expansion 2-11)) suspended in PBS with 20% Matrigel were injected subcutaneously into right flank of each mouse. Tumor volume was measured three times a week with a digital caliper once palpable, and calculated using the formula, tumor size = ab^2/2, where ‘a’ is the larger and ‘b’ is the smaller of the two dimensions. When tumors grew up to a mean volume of around 100 mm^3, A549 tumor bearing mice or A549-2-11 tumor bearing mice were randomly divided into 7 groups (N=5 for each group) respectively and subject to dose/regimen-finding study. They were treated with tail vein injection of (1) Cisplatin (2 mg/kg), (2) Carboplatin (25 mg/kg), (3) Cisplatin (5 mg/kg) and Vinorelbine (5 mg/kg) or (4) saline on day 0, 3, 6 and 9 (day 0 is designated as the day of dose started) (Sanjana et al., 2014, Nature Methods 11(8); 783-784). Tumor volume and body weight was closely monitored over time. After 16 days, the animals were sacrificed, with tumor removed, weighed and processed for molecular analysis. Mice were euthanized. The data were expressed as mean ± SD. Student’s t-test and one-way or two-way ANOVA was used to assess the significance of difference. A P value < 0.05 was considered significant.
A549 xenografts were resected on day 16, snap frozen in liquid nitrogen and stored in -80° C. until usage. All immunofluorescence staining was performed as previously described. Wang et al., Investig. Opthalmology Vis. Sci. 58, 3896 (2017). Briefly, tumors were embedded in Optimum Cutting Temperature (Tissue Tek, Torrance, CA, USA) and 16-µm-thick sections were obtained with a Leica CM3050 cryostat (Leica Microsystems, Buffalo Grove, IL, USA), and mounted on slides. Slides were fixed and incubated with blocking buffer for 1 hour at room temperature. Sections were then incubated with primary antibody (refer to Table 3 for more details), then washed in PBS and incubated with Alexa Fluor 488 labeled secondary antibody (1:200 dilution; Invitrogen, Grand Island, NY, USA) for 1 hour at RT. Sections were washed in PBS, then mounted with SlowFade Gold antifade mountant with DAPI (Invitrogen, Carlsbad, CA, USA). […]

A549 Clone 2-23 cells = test: MTS assay, A549 Neh2 KO Clone 2-23 treated with cisplatin; type: cell-based, human; settings: cisplatin 1, 2, 3, 5, 10 uM, compared to wildtype A549
Description: (§3) The lung adenocarcinoma-derived cell line, A549, was used transfected with CRISPR/Cas9 designed to target exon 2 of NRF2 to create individual clones with random indel patterns. A total of three clones, 1-17, 2-16, and 2-23, were isolated and expanded. All three clones were collected for genomic DNA isolation and sanger sequencing to confirm the indels present. The DECODR program was used to deconvolute the sanger sequencing of each clone. The A549 cell line is polyploid and therefore, these clones contain 3 alleles of the NRF2 gene. Clone 1-17 contains -2, -2, -13 base pair deletions. Clone 2-16 contains a -1 base pair deletion across all alleles. Clone 2-23 contains two wildtype alleles and a -2 base pair deletion. A cell proliferation assay was used to assess the functionality of NRF2 after CRISPR targeting in combination with cisplatin treatment. The MTS assay was used to measure cellular proliferation of A549 wildtype, Clone 1-17, 2-16, and 2-23 cells. Cells were plated at the same concentration in each well and allowed to recover for 24 hours. […] Absorbance values for each clone and concentration were normalized by dividing the absorbance by the absorbance of each control well (0 µM). Normalized values for each clone at each concentration were then averaged across and standard error of the mean was calculated. […]

A549 Clone 1-17 cells = test: MTS assay, A549 Neh2 KO Clone 1-17 treated with cisplatin; type: cell-based, human; settings: cisplatin 1, 2, 3, 5, 10 uM, compared to wildtype A549
Description: as §3

wild type A549 tumors = test: Xenograft mouse model, wild type A549 tumors; type: in vivo
Description: as §2, with “They were treated with tail vein injection of (1) Cisplatin (2 mg/kg), (2) Carboplatin (25 mg/kg), (3) Cisplatin (5 mg/kg) and Vinorelbine (5 mg/kg) or (4) saline on day 0, 3, 6 and 9 (day 0 is designated as the day of dose started) (Sanjana et al., 2014, Nature Methods 11(8); 783-784).” left out, “After 16 days, the animals were sacrificed, with tumor removed, weighed and processed for molecular analysis. Mice were euthanized.” left out, “Student’s t-test and one-way or two-way ANOVA was used to assess the significance of difference. A P value < 0.05 was considered significant.” left out

A549 Clone 2-16 cells = test: MTS assay, A549 Neh2 KO Clone 2-16 treated with cisplatin; type: cell-based, human; settings: cisplatin 1, 2, 3, 5, 10 uM, compared to wildtype A549
Description: as §3

wild type A549 cells = test: MTS cell proliferation assay after drug exposure, wild type A549; type: cell-based, human; settings: 72 hours
Description: as §1

[3] = 5 mg/kg cisplatin and 5 mg/kg vinorelbine in combination
[4] = cisplatin 2 mg/kg, tumors harvested day 16
[5] = increasing cisplatin with Vinorelbine at 5 µM
[6] = increasing dosages of cisplatin

Row | Structure (SMILES) | chemosensitivity (MTS) ([1]; listed as Carboplatin) | tumor growth over 16 days ([2]; 25 mg/kg carboplatin tail vein) | sensitivity to cisplatin (MTS) (A549 Clone 2-23 cells) | sensitivity to cisplatin (MTS) (A549 Clone 1-17 cells) | tumor growth over 16 days (wild type A549 tumors; [3]) | size of extracted tumors (wild type A549 tumors; [4]) | concentrations with loss of proliferation ([1]; cisplatin) | chemosensitivity (MTS), combination [1, 5] | chemosensitivity (MTS) [1] | sensitivity to cisplatin (MTS) (A549 Clone 2-16 cells) | cisplatin dosage above which elevated sensitivity is shown (wild type A549 cells; [5]) | dose dependence of cell proliferation (MTS) (wild type A549 cells; [6]) | resistance to drug (MTS proliferation) (wild type A549 cells; [6]) | tumor growth over 16 days [2, 3] | tumor growth over 16 days ([2]; cisplatin 2 mg/kg tail vein, day 0, 3, 6, 9) | size of extracted tumors [2, 4]
1 | N.N.O=C([O-])C1(C(=O)[O-])CCC1.[Pt+2] [carboplatin] | the cell killing response reflected what was observed in the experiments using cisplatin | reduction in tumor proliferation | – | – | – | – | – | – | – | – | – | – | – | – | – | –
2 | N.N.[Cl][Pt][Cl] [cisplatin] | – | – | even higher resistance than the wildtype cells | relatively the same trend of sensitivity | more sensitive to this combination of drugs | proliferate aggressively | ≥ 1 µM | increased sensitivity; also recorded: a heightened sensitivity is also observed | heightened sensitivity | relatively the same trend of sensitivity | > 5 µM | slight increase in cell proliferation up to 3 µM of cisplatin before proliferation is adversely affected at final concentrations of 5 µM and 10 µM | resistant to high dosages | cessation of tumor growth and maintenance of tumor size; also recorded: reduction in tumor proliferation | proliferation of the implanted cells is arrested; also recorded: reduction in tumor proliferation | smallest tumors
